Experimental findings from patent US20140336182A1, “Aurora Kinase Modulators and Method of Use” (Amgen Inc., priority 2013, published 2014) are described below.

The test system of the first assay is HeLa cells. In words: HeLa cell 24 hr ploidy assay (DNA content). It counts as cell-based. The following applies: HeLa cells, 4N ploidy, average, read-out: 24h_4NPloidy EC50_IP (uM Avg). In a few lines:
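DNA content measured by Hoechst 33342 nuclear staining (0.5 ug/ml, 45 min RT) and high-content imaging of fixed HeLa cells after 24 h compound exposure in 0.25% DMSO. Fractions of 4N and >4N cells fitted to dose curves giving EC50 IP, EC50 transit, Max and Min.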
With `Clc1ccc(-c2nnc(Nc3ccc(Sc4ccnc5cccnc45)cc3)c3ccccc23)cc1` [compound 308], the EC50 stood at 0.006 µM.

The same assay, now with this note: Homo sapiens, HeLa, 4N ploidy, average, read-out: 24h_4NPloidy EC50_IP (uM Avg).
In the case of `Brc1ccc2nccc(Oc3ccc(Nc4nnc(-c5ccccc5)c5ccccc45)cc3)c2c1` [compound 134], the EC50 was found to be 0.091 µM.

For `COc1ccc2c(Oc3ccc(Nc4nnc(-c5ccccc5)c5ccccc45)cc3)ccnc2c1` [compound 91], the EC50 is 0.03 µM. For `COc1cc2nccc(Oc3ccc(Nc4nnc(-c5cccc(COC(C)=O)n5)c5ccccc45)cc3)c2cc1OC` [compound 113], the EC50 was 0.048 µM. In the case of `COc1cccc(-c2nnc(Nc3ccc(Oc4ccnc5cc(OC)cnc45)cc3)c3ccccc23)c1` [compound 139], the EC50 turned out to be 0.057 µM. Same read-out and setting: then `COc1cnc2c(Oc3ccc(Nc4nnc(-c5ccncc5OC)c5ccccc45)cc3)ccnc2c1` [compound 130], with above 1.2 µM; and `Cc1ccc(-c2nnc(Nc3ccc(Oc4ccnc5cc(C#N)ccc45)cc3)c3ccccc23)nc1` [compound 122], with 0.053 µM. For `Cc1ccc(-c2nnc(Nc3ccc(Oc4ccnc5ccccc45)c(F)c3)c3ccccc23)cc1` [compound 161], the EC50 came out at 0.01 µM. On the same count and under the same terms, with `COc1cnc2c(Oc3ccc(Nc4nnc(-c5cc(F)ccc5OC)c5ccccc45)cc3)ccnc2c1` [compound 80] the figure was 0.487 µM; with `COc1ccccc1-c1nnc(Nc2ccc(Oc3ccnc4cc(C#N)ccc34)cc2)c2ccccc12` [compound 119], above 1.2 µM. The same measure, in the same setting: then `COc1cc2nccc(Oc3ccc(Nc4nnc(-c5cccc(CO)n5)c5ccccc45)cc3)c2cc1OC` [compound 112], with 0.02 µM; and `COc1cnc2c(Oc3ccc(Nc4nnc(-c5ccc(C)s5)c5ccccc45)cc3)ccnc2c1` [compound 138], with 0.03 µM; and `COc1ccc2c(Oc3ccc(Nc4nnc(-c5cc(C)ccn5)c5ccccc45)cc3)ccnc2c1` [compound 118], with 0.11 µM. Turning to `CCc1cc(-c2ccccc2)nnc1Nc1ccc(Oc2ccnc3cc(OC)cnc23)nc1` [compound 83, 4-ethyl-N-(6-((7-(methyloxy)-1,5-naphthyridin-4-yl)oxy)-3-pyridinyl)-6-phenyl-3-pyridazinamine], the EC50 stood at 0.349 µM.

The assay is the same for the next values; noted with them: Homo sapiens, HeLa, HeLa cells, 4N ploidy, average, read-out: 24h_4NPloidy EC50_IP (uM Avg).
As to `COc1cnc2c(Sc3ccc(Nc4nnc(-c5ccccc5)c5ccccc45)cn3)ccnc2c1` [compound 413], the EC50 was 0.041 µM.

On to `COc1cnc2c(Oc3ccc(Nc4nnc(-c5cccc(Cl)c5)c5ccccc45)cc3)ccnc2c1` [compound 219], for which the EC50 amounted to 0.031 µM. Regarding `COc1cnc2c(Oc3ccc(Nc4nncc5ccccc45)cc3)ccnc2c1` [compound 542, N-(4-((7-methoxy-1,5-naphthyridin-4-yl)oxy)phenyl)-1-phthalazinamine], the EC50 turned out to be 0.382 µM.

Consider `Cc1ccc(-c2nnc(Nc3ccc(Sc4ccnc5ccoc45)cc3)c3ccccc23)cc1N` [compound 479], for which the EC50 was 0.009 µM.

As for `O=c1ccc2nccc(Oc3ccc(Nc4nnc(-c5ccc(Cl)cc5)c5ccccc45)cc3)c2[nH]1` [compound 569], the EC50 amounted to 0.115 µM. Take `COc1cnc2c(Sc3ccc(Nc4nnc(-c5ccccc5F)c5ccccc45)cc3)ccnc2c1` [compound 495]: the EC50 amounted to 0.024 µM. The same measure, in the same setting: with `COc1cnc2c(N(C)c3ccc(Nc4nnc(-c5cc(C)cs5)c5ccccc45)cc3)ccnc2c1` [compound 247] the figure was 0.112 µM; with `COc1cnc2c(Oc3ccc(Nc4nnc(-c5cccc(N6CCCCC6)c5)c5ccccc45)cc3)ccnc2c1` [compound 197], 0.021 µM; with `COc1cnc2c(Oc3ccc(Nc4nnc(-c5ccc(N6CCCCC6)cc5)c5ccccc45)cc3)ccnc2c1` [compound 198], 0.399 µM. In the case of `COc1cnc2c(Oc3ccc(Nc4nnc(-c5cccc(N(C)C)c5)c5ccccc45)cc3)ccnc2c1` [compound 258], the EC50 amounted to 0.004 µM.

Turning to `COC1CCN(c2nnc(Nc3ccc(Oc4ccnc5ccoc45)cc3)c3ccccc23)CC1` [compound 478], the EC50 came to 0.381 µM. On the same count and under the same terms, then `CCc1cc(N2CC[C@H]3CCCC[C@@H]3C2)nnc1Nc1ccc(Oc2ccnc3cc(OC)cnc23)cc1` [compound 320], with 0.12 µM. Same read-out and setting: with `COc1cnc2c(Oc3ccc(Nc4nnc(-c5ccccc5)c(C)c4C)cc3)ccnc2c1` [compound 281] the figure was 0.378 µM. On to `COc1cnc2c(Oc3ccc(Nc4nnc(-c5cc(CO)cs5)c5ccccc45)cc3)ccnc2c1` [Example 407, (5-(4-(4-(7-Methoxy-1,5-naphthyridin-4-yloxy)phenylamino)phthalazin-1-yl)thiophen-3-yl)methanol], for which the EC50 worked out at 0.012 µM. Still for that read-out and setting: with `COc1cnc2c(Sc3ccc(Nc4nnc(C(C)C)c5ccccc45)cc3)ccnc2c1` [compound 558] the figure was 0.1 µM; with `COc1cnc2c(Sc3ccc(Nc4nnc(-c5ccc(Cl)cc5)c5ccccc45)cc3)ccnc2c1` [compound 232], 0.004 µM. Still for that read-out and setting: with `COc1cnc2c(Oc3ccc(Nc4nnc(-c5cnc6ccccc6c5)c5ccccc45)cc3)ccnc2c1` [compound 182] the figure was 0.032 µM. Same read-out and setting: with `COc1ccc2nccc(Oc3ccc(Nc4nnc(-c5ccccc5)c5ccccc45)cc3)c2n1` [compound 347] the figure was 0.039 µM.

`COc1cnc2c(Sc3ccc(Nc4nnc(OCCC5CCCCN5)c5ccccc45)cc3)ccnc2c1` (centres unmarked) [Example 403, N-(4-(7-Methoxy-1,5-naphthyridin-4-ylthio)phenyl)-4-(2-(piperidin-2-yl)ethoxy)phthalazin-1-amine]: the EC50 came out at 0.037 µM.

Take `COc1ccc2nccc(Sc3ccc(Nc4nnc(-c5cccc(C)n5)c5ccccc45)cc3)c2n1` [compound 419]: the EC50 amounted to 0.124 µM. Same read-out and setting: then `COc1cc(OC)c2c(Sc3ccc(Nc4nnc(-c5ccc(Cl)cc5)c5ccccc45)cc3)ccnc2c1` [compound 436], with 0.049 µM. As to `COc1cnc2c(Oc3ccc(Nc4nnc(-c5ccc(F)c(Cl)c5)c5ccccc45)cc3)ccnc2c1` [compound 193, 4-(3-chloro-4-fluorophenyl)-N-(4-((7-(methyloxy)-1,5-naphthyridin-4-yl)oxy)phenyl)-1-phthalazinamine], the EC50 turned out to be 0.027 µM. On the same count and under the same terms, then `COc1cnc2c(Sc3ccc(Nc4nnc(C#N)c5ccccc45)cc3)ccnc2c1` [Example 404, 4-(4-(7-Methoxy-1,5-naphthyridin-4-ylthio)phenylamino)phthalazine-1-carbonitrile], with 0.063 µM; and `O=c1ccc2nccc(Sc3ccc(Nc4nnc(-c5ccc(Cl)cn5)c5ccccc45)cc3)c2[nH]1` [Example 405, 8-(4-(4-(5-Chloropyridin-2-yl)phthalazin-1-ylamino)phenylthio)-1,5-naphthyridin-2(1H)-one], with 0.036 µM; and `COc1cc(F)cc2nccc(Oc3ccc(Nc4nnc(-c5cc(C)cs5)c5ccccc45)cc3)c12` [compound 442], with below 0.0023 µM. The same measure, in the same setting: with `Cc1cc2nccc(Sc3ccc(Nc4nnc(-c5ccc(Cl)cc5)c5ccccc45)cc3)c2s1` [compound 559] the figure was 0.018 µM. The same measure, in the same setting: with `Cc1ccc(-c2nnc(Nc3ccc(Sc4ccnc5cc(C#N)sc45)cc3)c3ccccc23)cn1` [compound 461] the figure was 0.019 µM. Consider `Clc1ccc(-c2nnc(Nc3ccc(Oc4ncnc5[nH]cnc45)cc3)c3ccccc23)cc1` [compound 266], for which the EC50 was above 1.2 µM. Still for that read-out and setting: with `COc1cnc2c(Sc3ccc(Nc4nnc(-c5ccc6c(c5)OCO6)c5ccccc45)cc3)ccnc2c1` [compound 530] the figure was 0.001 µM.

As to `Cc1ccc(-c2nnc(Nc3ccc(Oc4ccnc5ccncc45)cc3)c3ccccc23)nc1` [compound 432], the EC50 is 0.109 µM. On the same count and under the same terms, with `COc1cnc2c(Oc3ccc(Nc4nnc(-c5cnc6[nH]ccc6c5)c5ccccc45)cc3)ccnc2c1` [compound 280] the figure was 0.08 µM; with `COCCOc1nnc(Nc2ccc(Sc3ccnc4cc(OC)cnc34)cc2)c2ccccc12` [compound 515], 0.018 µM. On the same count and under the same terms, then `N#Cc1cc2nccc(Sc3ccc(Nc4nnc(-c5ccc6c(c5)OCO6)c5ccccc45)cc3)c2s1` [compound 457], with 0.021 µM; and `CNC(=O)c1cc(Sc2ccc(Nc3nnc(-c4ccc(Cl)cc4)c4ccccc34)cc2)ccn1` [compound 360], with 0.413 µM; and `COc1cnc2c(Oc3ccc(Nc4nnc(-c5ccc(Cl)cc5)c5ccccc45)cc3OC)ccnc2c1` [compound 566], with 0.191 µM. On the same count and under the same terms, with `CCc1cc(-c2ccc3c(c2)OCO3)nnc1Nc1ccc(Oc2ccnc3cc(OC)cnc23)cc1` [compound 594] the figure was 0.202 µM; with `COCCOCCOc1ccc2nccc(Sc3ccc(Nc4nnc(-c5ccc(Cl)cc5)c5ccccc45)cc3)c2n1` [compound 475], 0.017 µM.

Take `COc1cnc2c(Oc3ccc(Nc4nnc(-c5ccc(F)c(C)c5)c5ccccc45)cc3)ccnc2c1` [compound 246, 4-(4-fluoro-3-methylphenyl)-N-(4-((7-(methyloxy)-1,5-naphthyridin-4-yl)oxy)phenyl)-1-phthalazinamine]: the EC50 came out at 0.03 µM. With `COc1cnc2c(Sc3ccc(Nc4nnc(C5CC5)c5ccccc45)cc3)ccnc2c1` [compound 541], the EC50 was found to be 0.038 µM.

Take `Cc1ccc(-c2nnc(Nc3ccc(Sc4ccnc5ccncc45)cc3)c3ccccc23)nc1` [compound 433]: the EC50 is 0.017 µM. Still for that read-out and setting: with `Cc1nc(-c2nnc(Nc3ccc(Oc4ccnc5cc(C#N)ccc45)cc3)c3ccccc23)sc1C` [compound 277] the figure was 0.035 µM; with `CC(C)n1ccc2nccc(Sc3ccc(Nc4nnc(-c5ccc(Cl)cc5)c5ccccc45)cc3)c21` [compound 471], 0.006 µM.

Consider `COc1cnc2c(Sc3ccc(Nc4nnc(N5CCN6CCC[C@H]6C5)c5ccccc45)cc3)ccnc2c1` [compound 563], for which the EC50 is below 0.0023 µM. As to `c1ccc2c(-c3ccc4c(c3)CCO4)nnc(Nc3ccc(Oc4ccnc5ccsc45)cc3)c2c1` [compound 272], the EC50 came out at 0.006 µM. The same measure, in the same setting: with `c1ccc(-c2nnc(Nc3ccc(Sc4ccnc5[nH]ccc45)cc3)c3ccccc23)cc1` [compound 329] the figure was 0.057 µM.
